One assay has as its system P-MEK/Total MEK. Nature of the assay: Western blot MEK1 phosphorylation, HL-60. Type of assay: cell-based. Particulars: HL-60 cells; for IC50: 2 h, read-out: IC50 P-MEK/Total MEK; for Selectivity ratio: IC50 P-MEK/Total MEK divided by IC50 Phospho-Ser3-Cofilin/Total Cofilin. On the procedure: HL-60 cell line was originally purchased from the Leibniz-Institut Deutsche Sammlung von Mikroorganismen und Zellkulturen GmbH (DSMZ). HL-60 cells are cultured in RPMI 1640 10% (v/v) FBS supplemented with 100 U/mL^−1 penicillin, 0.1 mg·mL^−1 streptomycin (PAN Biotech P06-07100). Cells were maintained at 37° C. with 5% CO2.
(§1) In a 6 wells plate (Falcon 353046), 2·10^6 cells in 1.5 mL medium are treated for 2 h with compounds. Cells are then collected and cell lysis is performed at 4° C. using RIPA buffer supplemented with protease inhibitors cocktail (Sigma-Aldrich P8340) and phosphatase inhibitors cocktail (Sigma-Aldrich P5726). Following centrifugation 30 min 15000 g 4° C., supernatants are mixed with Laemmli buffer and denaturation is performed by heating 5 min 95° C. 10 μL of samples are subjected to electrophoresis on 15% SDS-PAGE. After electro-transfer (Mini Transblot, Bio-Rad), the PVDF membrane (Merck-Millipore Immobilon P IPVH00010) is blocked with Tris Buffered Saline, pH 7.4 (TBS) with 0.1% Tween 20 and 5% BSA for 1 h at room temperature under agitation. The membrane was rinsed 3 times 10 min at room temperature under agitation with TBS, 0.1% Tween-20 (TBST) and then 1 h at room temperature with anti-phospho-Ser218/222-MEK1 (Merck-Millipore 07-461, 1/1000 dilution) antibody or anti-MEK1 (Merck-Millipore 07-641, 1/1000 dilution) diluted in TBS, 0.1% Tween 20 and 1% BSA. The membrane is then rinsed 3 times 10 min RT under agitation in TBST and incubated for 1 h with anti-rabbit secondary antibody, horseradish peroxidase conjugated (Jackson Immunoresearch #711-036-152) under agitation at room temperature. After three washes 10 min at room temperature in TBST, the detection of total or phosphorylated cofilin was performed using chemiluminescence kit ECL™ Plus (GE Healthcare RPN2132). For each concentration of compound, ratio between phosphorylated cofilin and total cofilin is determined. This ratio is then expressed as percentage of control ratio (i.e., ratio from DMSO treated cells). IC50 P-MEK/Total MEK is then determined.
Selectivity ratios are calculated by dividing the IC50 P-MEK/Total MEK value (μM) by the IC50 Phospho-Ser3-Cofilin/Total Cofilin value (μM).

The subject of assay [1] is Phospho-Ser3-Cofilin/Total Cofilin. Kind of assay: Western blot cofilin phosphorylation, MOLM-13. Format: cell-based. The settings on record: Homo sapiens, MOLM-13 cells. As for the experimental part: MOLM-13 cell line was originally purchased from the Leibniz-Institut Deutsche Sammlung von Mikroorganismen und Zellkulturen GmbH (DSMZ). MOLM-13 cells are cultured in RPMI 1640 20% (v/v) FBS supplemented with 100 U/mL^−1 penicillin, 0.1 mg·mL^−1 streptomycin (PAN Biotech P06-07100). Cells were maintained at 37° C. with 5% CO2.
as §1, with “1 h RT under agitation.” for “1 h at room temperature under agitation.”, “temperature with anti-phospho-Ser3-cofilin (Cell Signaling Technology #3313, 1/1000 dilution)” for “temperature with anti-phospho-Ser218/222-MEK1 (Merck-Millipore 07-461, 1/1000 dilution)”, “antibody or anti-cofilin (Cell Signaling Technology #3312, 1/1000 dilution)” for “antibody or anti-MEK1 (Merck-Millipore 07-641, 1/1000 dilution)”, “10 min at room temperature under agitation” for “10 min RT under agitation”, “cells). IC50 Phospho-Ser3-Cofilin/Total Cofilin is then” for “cells). IC50 P-MEK/Total MEK is then”

In another assay the target is T1, Ret(h) (Homo sapiens, UniProt P07949).
T1 construct: purchased Merck-Millipore (KinaseProfiler panel service)
T1 sequence (P07949 29-1114): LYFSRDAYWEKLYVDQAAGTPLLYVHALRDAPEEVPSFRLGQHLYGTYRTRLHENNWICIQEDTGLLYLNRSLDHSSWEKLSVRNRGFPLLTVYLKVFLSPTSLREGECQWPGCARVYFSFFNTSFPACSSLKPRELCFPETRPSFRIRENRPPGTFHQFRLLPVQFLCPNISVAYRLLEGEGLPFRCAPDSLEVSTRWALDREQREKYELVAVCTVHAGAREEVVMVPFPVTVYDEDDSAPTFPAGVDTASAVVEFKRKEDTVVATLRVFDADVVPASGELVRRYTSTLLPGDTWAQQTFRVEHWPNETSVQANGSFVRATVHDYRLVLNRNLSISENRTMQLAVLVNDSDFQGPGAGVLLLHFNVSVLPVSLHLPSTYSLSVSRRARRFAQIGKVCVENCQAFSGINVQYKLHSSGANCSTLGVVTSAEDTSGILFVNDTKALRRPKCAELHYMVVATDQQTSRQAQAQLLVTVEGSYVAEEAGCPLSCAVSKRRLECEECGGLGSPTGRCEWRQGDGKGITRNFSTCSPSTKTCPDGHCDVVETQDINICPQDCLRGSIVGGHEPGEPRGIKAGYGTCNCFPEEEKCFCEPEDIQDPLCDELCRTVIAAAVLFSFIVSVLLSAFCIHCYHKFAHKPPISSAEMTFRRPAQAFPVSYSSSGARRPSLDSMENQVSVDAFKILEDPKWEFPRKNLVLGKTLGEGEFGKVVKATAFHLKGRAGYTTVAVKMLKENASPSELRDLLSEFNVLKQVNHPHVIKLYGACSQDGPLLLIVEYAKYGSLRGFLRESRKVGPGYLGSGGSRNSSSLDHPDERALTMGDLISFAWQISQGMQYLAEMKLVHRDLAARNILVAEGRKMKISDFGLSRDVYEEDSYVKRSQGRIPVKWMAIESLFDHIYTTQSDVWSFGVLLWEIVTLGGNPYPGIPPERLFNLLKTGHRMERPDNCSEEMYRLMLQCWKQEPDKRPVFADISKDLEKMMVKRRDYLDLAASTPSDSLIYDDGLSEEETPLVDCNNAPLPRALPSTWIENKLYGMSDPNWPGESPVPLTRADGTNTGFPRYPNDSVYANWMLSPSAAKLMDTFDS
Nature of the assay: KinaseProfiler panel: Ret(h). Format: biochemical. The settings on record: residual activity, 5 μM inhibitor, Km ATP. On the procedure: (§2) Kinase selectivity was performed on a panel of 58 recombinant protein kinases. The assays were performed in the presence of 5 μM inhibitor at the respective Km ATP for each kinase, using the KinaseProfiler panel service (Merck-Millipore). Residual activity measured in the presence of […] inhibitor is expressed as the percent of activity determined in the absence of inhibitor.

Another assay deals with T2, SAPK2a(h) (Homo sapiens, UniProt Q16539).
T2 construct: purchased Merck-Millipore (KinaseProfiler panel service)
T2 sequence (Q16539 whole entry): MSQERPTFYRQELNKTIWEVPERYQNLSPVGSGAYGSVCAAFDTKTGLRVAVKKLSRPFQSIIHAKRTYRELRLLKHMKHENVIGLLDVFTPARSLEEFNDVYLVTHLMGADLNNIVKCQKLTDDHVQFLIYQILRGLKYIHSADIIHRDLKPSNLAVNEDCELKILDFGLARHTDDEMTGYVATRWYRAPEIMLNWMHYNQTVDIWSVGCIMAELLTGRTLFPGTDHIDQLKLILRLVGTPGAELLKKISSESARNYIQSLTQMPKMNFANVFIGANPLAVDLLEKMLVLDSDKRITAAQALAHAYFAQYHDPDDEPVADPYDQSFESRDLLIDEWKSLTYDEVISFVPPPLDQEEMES
Kind of assay: KinaseProfiler panel: SAPK2a(h). Type of assay: biochemical. The settings on record: residual activity, 5 μM inhibitor, Km ATP. As for the experimental part: as §2

The target in another assay is B-Raf(h) (Homo sapiens, UniProt P15056). Nature of the assay: KinaseProfiler panel: B-Raf(h). Type of assay: biochemical. Details: purchased Merck-Millipore (KinaseProfiler panel service). The settings on record: residual activity, 5 μM inhibitor, Km ATP. On the procedure: as §2
Chain of B-Raf(h) (P15056 whole entry): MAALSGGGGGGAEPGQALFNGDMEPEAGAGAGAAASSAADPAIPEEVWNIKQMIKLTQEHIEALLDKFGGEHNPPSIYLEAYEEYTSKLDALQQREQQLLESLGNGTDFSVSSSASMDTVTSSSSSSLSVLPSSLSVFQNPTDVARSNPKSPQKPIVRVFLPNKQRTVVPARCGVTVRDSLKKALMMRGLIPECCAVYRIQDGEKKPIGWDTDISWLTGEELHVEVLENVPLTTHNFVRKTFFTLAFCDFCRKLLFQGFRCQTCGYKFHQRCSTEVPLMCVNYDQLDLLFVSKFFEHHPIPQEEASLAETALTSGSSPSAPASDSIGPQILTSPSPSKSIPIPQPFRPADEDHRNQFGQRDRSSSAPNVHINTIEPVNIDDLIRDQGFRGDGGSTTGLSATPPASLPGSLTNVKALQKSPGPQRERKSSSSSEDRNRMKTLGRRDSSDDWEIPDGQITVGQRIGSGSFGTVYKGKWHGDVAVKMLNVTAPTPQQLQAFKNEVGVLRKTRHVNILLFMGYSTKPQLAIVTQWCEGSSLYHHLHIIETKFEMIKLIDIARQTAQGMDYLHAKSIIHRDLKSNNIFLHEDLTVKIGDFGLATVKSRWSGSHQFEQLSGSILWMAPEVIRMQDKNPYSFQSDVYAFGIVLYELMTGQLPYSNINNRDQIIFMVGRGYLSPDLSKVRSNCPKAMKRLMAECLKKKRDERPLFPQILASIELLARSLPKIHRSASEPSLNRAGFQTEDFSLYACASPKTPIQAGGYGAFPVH
Another assay has as its target T3, Flt3(D835Y)(h) (Homo sapiens, UniProt P36888, D835Y).
T3 construct: purchased Merck-Millipore (KinaseProfiler panel service)
Kind of assay: KinaseProfiler panel: Flt3(D835Y)(h). The settings on record: residual activity, 5 μM inhibitor, Km ATP. Type of assay: biochemical. On the procedure:
as §2

Another assay deals with T4, IR(h), activated (Homo sapiens, UniProt P06213).
T4 construct: purchased Merck-Millipore (KinaseProfiler panel service)
T4 sequence (P06213 28-1382): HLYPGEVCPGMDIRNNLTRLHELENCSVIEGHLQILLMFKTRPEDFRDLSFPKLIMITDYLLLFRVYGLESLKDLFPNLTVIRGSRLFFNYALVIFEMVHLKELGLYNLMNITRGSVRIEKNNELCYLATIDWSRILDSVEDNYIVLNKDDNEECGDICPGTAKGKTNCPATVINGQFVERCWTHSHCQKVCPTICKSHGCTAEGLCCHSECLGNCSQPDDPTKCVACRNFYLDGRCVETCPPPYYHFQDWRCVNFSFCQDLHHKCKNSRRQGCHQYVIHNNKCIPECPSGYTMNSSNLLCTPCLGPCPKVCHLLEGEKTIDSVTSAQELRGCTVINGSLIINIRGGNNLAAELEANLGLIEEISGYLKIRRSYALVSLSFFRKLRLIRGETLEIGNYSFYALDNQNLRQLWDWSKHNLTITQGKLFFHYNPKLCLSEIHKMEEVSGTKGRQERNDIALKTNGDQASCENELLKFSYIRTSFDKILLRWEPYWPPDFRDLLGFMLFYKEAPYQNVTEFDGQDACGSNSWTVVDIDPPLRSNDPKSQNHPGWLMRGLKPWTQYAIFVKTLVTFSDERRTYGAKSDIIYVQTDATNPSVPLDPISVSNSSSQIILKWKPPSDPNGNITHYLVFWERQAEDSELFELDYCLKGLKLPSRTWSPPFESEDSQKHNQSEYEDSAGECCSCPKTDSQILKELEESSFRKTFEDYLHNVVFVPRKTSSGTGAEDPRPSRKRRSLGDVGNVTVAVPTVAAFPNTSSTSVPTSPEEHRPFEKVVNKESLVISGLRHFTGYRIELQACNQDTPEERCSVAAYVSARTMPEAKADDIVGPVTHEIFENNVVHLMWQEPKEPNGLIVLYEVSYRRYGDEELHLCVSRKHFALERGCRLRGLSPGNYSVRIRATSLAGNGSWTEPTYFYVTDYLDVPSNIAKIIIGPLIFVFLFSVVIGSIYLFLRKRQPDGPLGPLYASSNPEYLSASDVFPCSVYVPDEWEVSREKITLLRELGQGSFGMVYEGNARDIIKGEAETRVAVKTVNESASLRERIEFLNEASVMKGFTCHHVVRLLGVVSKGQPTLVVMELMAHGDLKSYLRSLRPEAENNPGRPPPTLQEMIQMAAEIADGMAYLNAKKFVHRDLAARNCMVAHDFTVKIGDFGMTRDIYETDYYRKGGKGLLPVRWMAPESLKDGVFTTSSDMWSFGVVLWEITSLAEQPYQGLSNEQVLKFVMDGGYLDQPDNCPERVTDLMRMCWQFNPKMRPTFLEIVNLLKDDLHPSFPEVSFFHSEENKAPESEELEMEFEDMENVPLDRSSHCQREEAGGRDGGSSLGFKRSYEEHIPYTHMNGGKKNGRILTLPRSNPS
Nature of the assay: KinaseProfiler panel: IR(h), activated. Format: biochemical. The settings on record: residual activity, 5 μM inhibitor, Km ATP. On the procedure:
as §2

Another assay relates to MLCK(h). Kind of assay: KinaseProfiler panel: MLCK(h). Format: biochemical, human. The settings on record: residual activity, 5 μM inhibitor, Km ATP. As for the experimental part: as §2
For a further assay, the target named is T5, ROCK-II(h) (Homo sapiens, UniProt O75116).
T5 construct: purchased Merck-Millipore (KinaseProfiler panel service)
T5 sequence (O75116 whole entry): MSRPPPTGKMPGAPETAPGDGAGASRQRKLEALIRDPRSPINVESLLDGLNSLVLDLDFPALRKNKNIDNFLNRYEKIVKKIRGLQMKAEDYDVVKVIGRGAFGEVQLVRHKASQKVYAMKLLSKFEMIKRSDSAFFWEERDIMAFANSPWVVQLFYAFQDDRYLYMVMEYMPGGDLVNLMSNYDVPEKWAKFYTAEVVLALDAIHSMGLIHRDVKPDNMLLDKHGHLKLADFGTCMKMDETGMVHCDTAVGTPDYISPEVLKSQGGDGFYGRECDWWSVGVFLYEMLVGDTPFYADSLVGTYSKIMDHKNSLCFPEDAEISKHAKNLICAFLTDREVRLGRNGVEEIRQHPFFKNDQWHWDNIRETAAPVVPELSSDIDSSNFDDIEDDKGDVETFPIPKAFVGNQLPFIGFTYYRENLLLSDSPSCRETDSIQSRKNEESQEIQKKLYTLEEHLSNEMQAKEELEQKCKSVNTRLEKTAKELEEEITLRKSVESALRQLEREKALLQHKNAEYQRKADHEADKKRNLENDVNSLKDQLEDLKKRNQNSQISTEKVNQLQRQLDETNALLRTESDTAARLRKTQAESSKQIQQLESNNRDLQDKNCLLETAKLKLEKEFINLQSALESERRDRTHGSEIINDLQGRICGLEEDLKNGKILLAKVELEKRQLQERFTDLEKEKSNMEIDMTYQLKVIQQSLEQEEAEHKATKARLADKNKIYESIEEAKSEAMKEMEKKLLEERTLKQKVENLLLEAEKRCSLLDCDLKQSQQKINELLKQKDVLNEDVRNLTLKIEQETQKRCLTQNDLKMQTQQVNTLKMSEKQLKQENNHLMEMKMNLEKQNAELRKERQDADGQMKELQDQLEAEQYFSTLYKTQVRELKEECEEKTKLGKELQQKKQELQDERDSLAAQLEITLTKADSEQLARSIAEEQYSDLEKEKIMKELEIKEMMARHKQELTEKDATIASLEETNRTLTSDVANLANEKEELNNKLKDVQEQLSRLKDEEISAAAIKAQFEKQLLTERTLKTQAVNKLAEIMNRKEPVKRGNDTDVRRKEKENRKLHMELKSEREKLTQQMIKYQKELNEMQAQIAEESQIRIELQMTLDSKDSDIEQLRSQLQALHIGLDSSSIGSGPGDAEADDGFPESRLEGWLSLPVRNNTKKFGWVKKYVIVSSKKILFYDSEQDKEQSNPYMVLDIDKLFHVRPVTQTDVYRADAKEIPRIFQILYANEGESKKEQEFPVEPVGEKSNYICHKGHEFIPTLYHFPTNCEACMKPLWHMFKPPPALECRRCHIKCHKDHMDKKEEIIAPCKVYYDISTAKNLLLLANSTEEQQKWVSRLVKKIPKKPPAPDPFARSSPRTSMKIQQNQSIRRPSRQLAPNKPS
Kind of assay: KinaseProfiler panel: ROCK-II(h). Type of assay: biochemical. The settings on record: residual activity, 5 μM inhibitor, Km ATP. As for the experimental part: as §2

The target of a further assay is T6, ALK(h) (Homo sapiens, UniProt Q9UM73).
T6 construct: purchased Merck-Millipore (KinaseProfiler panel service)
Kind of assay: KinaseProfiler panel: ALK(h). Format: biochemical. Particulars: residual activity, 5 μM inhibitor, Km ATP. On the procedure:
as §2

In a further assay the target is T7, FGFR1(h) (Homo sapiens, UniProt P11362).
T7 construct: purchased Merck-Millipore (KinaseProfiler panel service)
Nature of the assay: KinaseProfiler panel: FGFR1(h). Type of assay: biochemical. The settings on record: residual activity, 5 μM inhibitor, Km ATP. As for the experimental part:
as §2

For another assay, the target named is T8, LKB1(h) (Homo sapiens, UniProt Q15831).
T8 construct: purchased Merck-Millipore (KinaseProfiler panel service)
Nature of the assay: KinaseProfiler panel: LKB1(h). Format: biochemical. The settings on record: residual activity, 5 μM inhibitor, Km ATP. As for the experimental part:
as §2

Read-outs that look alike come from different tables or passages of the source.

Here are results for four molecules from patent publication US20190263796A1, “LIM KINASE INHIBITORS, PHARMACEUTICAL COMPOSITION AND METHOD OF USE IN LIMK-MEDIATED DISEASES” (CELLIPSE, priority 2016, published 2019).

For `O=S(=O)(Nc1cccc(-c2nc(CCO)sc2-c2ccnc(Nc3ccccc3)n2)c1F)c1c(F)cccc1F` [8 (Na)], in the assay with P-MEK/Total MEK, the IC50 is > 1000 nM and the Selectivity ratio was found to be 42. In addition, the IC50 in [1] (2 h) is < 200 nM.

For the molecule `CC(C)(C)c1nc(-c2cccc(NS(=O)(=O)c3c(F)cccc3F)c2F)c(-c2ccnc(Nc3ccccc3)n2)s1` [Compound 1, N-(3-(2-(tert-butyl)-5-(2-(phenylamino)pyrimidin-4-yl)thiazol-4-yl)-2-fluorophenyl)-2,6-difluorobenzenesulfonamide], the activity at 5 µM at Ret(h) is 10 to 50%; on SAPK2a(h) it was ≥ 50%; at B-Raf(h), 3 to 10%; at Flt3(D835Y)(h), ≥ 50%; on IR(h), activated, ≥ 50%; at ROCK-II(h), ≥ 50%. Besides, the activity at 5 µM at ALK(h), at FGFR1(h) and on LKB1(h) was ≥ 50% in each case. In addition, the “% activity” value with MLCK(h) is recorded as “− (50%≤residual activity)”.

Turning to `O=S(=O)(Nc1cccc(-c2nc(CCO)sc2-c2ccnc(Nc3ccccc3)n2)c1F)c1c(F)cccc1F` [Compound 8, 2,6-difluoro-N-(2-fluoro-3-(2-(2-hydroxyethyl)-5-(2-(phenylamino)pyrimidin-4-yl)thiazol-4-yl)phenyl)benzenesulfonamide], in the assay with P-MEK/Total MEK, the Selectivity ratio worked out at 31. Also, the IC50 with P-MEK/Total MEK (Homo sapiens) is > 1000 nM.

As to `CNC(=O)Cc1nc(-c2cccc(NS(=O)(=O)c3c(F)cccc3F)c2F)c(-c2ccnc(Nc3ccccc3)n2)s1` [Compound 9, 2-(4-(3-(2,6-difluorophenylsulfonamido)-2-fluorophenyl)-5-(2-(phenylamino)pyrimidin-4-yl)thiazol-2-yl)-N-methylacetamide], in assay [1] (MOLM-13, 2 h), the IC50 was < 200 nM.
